Legend:
Assay in all cases: relative viability (nuclei count vs DMSO), 5 days (fraction); higher = more cells survive
Gemcitabine + Pictilisib = compound: Nc1ccn([C@@H]2O[C@H](CO)[C@@H](O)C2(F)F)c(=O)n1 [Gemcitabine] + CS(=O)(=O)N1CCN(Cc2cc3nc(-c4cccc5[nH]ncc45)nc(N4CCOCC4)c3s2)CC1 [Pictilisib] (partner 1 µM)
In short: (§1)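 Dosing by pin tool came one day after lung cancer cell lines were seeded in 1536-well plates, using either one drug or a fixed anchor-drug dose plus five library-drug doses (not always all listed) in √10 steps. After 5 days, nuclei were counted on 4× images. Relative viability is treated-well nuclei count divided by vehicle-well nuclei count, and values are medians of duplicate plates.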

Gemcitabine + Linsitinib = compound: Nc1ccn([C@@H]2O[C@H](CO)[C@@H](O)C2(F)F)c(=O)n1 [Gemcitabine] + C[C@]1(O)C[C@@H](c2nc(-c3ccc4ccc(-c5ccccc5)nc4c3)c3c(N)nccn32)C1 [Linsitinib] (partner 1 µM)
In short: as §1

Gemcitabine + Alpelisib = compound: Nc1ccn([C@@H]2O[C@H](CO)[C@@H](O)C2(F)F)c(=O)n1 [Gemcitabine] + Cc1nc(NC(=O)N2CCC[C@H]2C(N)=O)sc1-c1ccnc(C(C)(C)C(F)(F)F)c1 [Alpelisib] (partner 2 µM)
In short: as §1

Gemcitabine + Decitabine = compound: Nc1ccn([C@@H]2O[C@H](CO)[C@@H](O)C2(F)F)c(=O)n1 [Gemcitabine] + Nc1ncn([C@H]2C[C@H](O)[C@@H](CO)O2)c(=O)n1 [Decitabine] (partner 2 µM)
In short: as §1

Row | Cell Line | relative viability (Gemcitabine + Pictilisib; first compound 0.001 µM) | relative viability (Gemcitabine + Pictilisib; first compound 0.003162 µM) | relative viability (Gemcitabine + Pictilisib; first compound 0.01 µM) | relative viability (Gemcitabine + Pictilisib; first compound 0.03162 µM) | relative viability (Gemcitabine + Pictilisib; first compound 0.1 µM) | relative viability (Gemcitabine + Linsitinib; first compound 0.001 µM) | relative viability (Gemcitabine + Linsitinib; first compound 0.003162 µM) | relative viability (Gemcitabine + Linsitinib; first compound 0.01 µM) | relative viability (Gemcitabine + Linsitinib; first compound 0.03162 µM) | relative viability (Gemcitabine + Linsitinib; first compound 0.1 µM) | relative viability (Gemcitabine + Alpelisib; first compound 0.001 µM) | relative viability (Gemcitabine + Alpelisib; first compound 0.003162 µM) | relative viability (Gemcitabine + Alpelisib; first compound 0.01 µM) | relative viability (Gemcitabine + Alpelisib; first compound 0.03162 µM) | relative viability (Gemcitabine + Alpelisib; first compound 0.1 µM) | relative viability (Gemcitabine + Decitabine; first compound 0.001 µM) | relative viability (Gemcitabine + Decitabine; first compound 0.003162 µM) | relative viability (Gemcitabine + Decitabine; first compound 0.01 µM) | relative viability (Gemcitabine + Decitabine; first compound 0.03162 µM) | relative viability (Gemcitabine + Decitabine; first compound 0.1 µM)
1 | NCI-H1944 | 0.352 | 0.373 | 0.355 | 0.241 | 0.22 | 1.24 | 1.15 | 1.17 | 0.509 | 0.259 | 0.855 | 0.845 | 0.783 | 0.366 | 0.14 | 0.44 | 0.409 | 0.443 | 0.381 | 0.193
2 | HARA | 0.299 | 0.483 | 0.532 | 0.261 | 0.0888 | 1.05 | 1.01 | 0.832 | 0.293 | 0.0949 | 0.827 | 0.808 | 0.682 | 0.233 | 0.0894 | 0.593 | 0.702 | 0.373 | 0.279 | 0.131
3 | NCI-H2126 | 0.474 | 0.485 | 0.479 | 0.349 | 0.278 | 0.712 | 0.673 | 0.692 | 0.51 | 0.315 | 0.749 | 0.705 | 0.728 | 0.504 | 0.255 | 0.604 | 0.546 | 0.546 | 0.423 | 0.299
4 | LXF-289 | 0.761 | 0.758 | 0.592 | 0.275 | 0.11 | 0.957 | 0.953 | 0.751 | 0.147 | 0.107 | 1.04 | 1 | 0.737 | 0.123 | 0.114 | 0.396 | 0.372 | 0.321 | 0.222 | 0.151
5 | NCI-H460 | 0.37 | 0.328 | 0.0742 | 0.0745 | 0.0388 | 0.714 | 0.878 | 0.0967 | 0.0138 | 0.0057 | 0.684 | 0.484 | 0.0473 | 0.0144 | 0.0066 | 0.475 | 0.451 | 0.417 | 0.0447 | 0.0204
6 | NCI-H1395 | 0.544 | 0.666 | 0.413 | 0.351 | 0.347 | 1.02 | 0.814 | 0.565 | 0.407 | 0.334 | 1.19 | 0.815 | 0.459 | 0.369 | 0.406 | 0.736 | 0.592 | 0.47 | 0.422 | 0.365
7 | NCI-H2009 | 0.872 | 0.419 | 0.157 | 0.128 | 0.101 | 1.23 | 0.722 | 0.29 | 0.156 | 0.119 | 1.15 | 0.552 | 0.276 | 0.12 | 0.112 | 0.363 | 0.264 | 0.233 | 0.141 | 0.114

Source: the supplement of paper PMC10307832
